In PMC6243185 (The Korean Journal of Parasitology, 2018):

Biological target: T1, AcCP (rAcCP) (Acanthamoeba castellanii, UniProt A1YJR6)
T1 sequence (A1YJR6 44-330): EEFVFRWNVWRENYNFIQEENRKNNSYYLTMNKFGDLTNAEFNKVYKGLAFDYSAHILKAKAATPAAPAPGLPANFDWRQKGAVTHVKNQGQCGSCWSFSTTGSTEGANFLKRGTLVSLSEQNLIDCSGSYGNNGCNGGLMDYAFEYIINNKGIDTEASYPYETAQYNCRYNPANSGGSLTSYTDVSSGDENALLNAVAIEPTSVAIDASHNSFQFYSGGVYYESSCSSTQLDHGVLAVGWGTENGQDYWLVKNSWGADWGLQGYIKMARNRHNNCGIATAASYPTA
Assay: inhibition of fluorogenic substrate hydrolysis
Format: biochemical
Settings: fully processed rAcCP; data not shown; covalent

How did the “inhibition of fluorogenic substrate hydrolysis; active site titration” value turn out when `CC(C)C[C@H](NC(=O)[C@H]1O[C@@H]1C(=O)O)C(=O)NCCCCN=C(N)N` [E-64, trans-epoxy-succinyl-L-leucylamido(4-guanidino)-butane] was run?
The value was “The fully processed rAcCP was effectively inhibited by a cysteine protease inhibitor, E-64 (data not shown)”.
